From PMC7069944, “Amino acid levels determine metabolism and CYP450 function of hepatocytes and hepatoma cell lines” (Nature Communications, 2020)
Values joined by “and” are separate entries in the source; they are usually repeats but may differ in a detail not shown here. Equal entries are not always repeated.

Tests used:
CYP3A4 [1] = experiment: qRT-PCR CYP3A4 expression in HLCs; type: cell-based, human; settings: HLCs in AA3 medium with or without 2% of the single amino acid or mix; Figure 4B
Experimental: (§1) AA supplementation was accomplished through the addition of MEM Non-Essential Amino Acids Solution (100 × ) and MEM Amino Acids Solution (50 × ) (Thermo Scientific) to the culture medium. For AA1, AA2, and AA3 medium, we added respectively 2 ml, 8 ml, and 16 ml of non-essential AA solution and 1 ml, 4 ml, and 8 ml of essential AA solution per 100 ml of LDM, with or without glucose. Culture medium was then made PH neutral through the addition of NaOH. […] PSC derived HLCs were differentiated in LDM until D12. AA supplementation (AA1, AA2 and AA3) was performed from day 12 until day 20, 30 or 40 of differentiation. […] HepG2, HUH7.5, Hep3B, HHL5, and HEK293 cells were maintained in DMEM supplemented with 10% fetal bovine serum as shown in Supplementary Table 4. AA supplementation consisted of addition of 16 ml of non-essential AA mix and 8 ml of essential AA mix per 100 ml of medium and a further addition of 20 g/l of any of the single AAs. Hepatoma cell lines were plated in normal culture medium, with addition of AA3 + 20 g/l AA once cells reached 60% confluency, and this for 3 or 7 additional days of culture. PHHs were maintained in a medium composition that was based on WE as detailed in ref. [67].
RNA extraction was performed using the GenElute Mammalian Total RNA Miniprep Kit (Sigma-Aldrich). Then, genomic DNA was eliminated using the On-Column DNase I Digestion kit (Sigma-Aldrich). […]

CYP3A4 [2] = experiment: qRT-PCR CYP3A4 expression in HepG2; type: cell-based, human
Experimental: as §1, with “Hepatoma cell lines were plated in normal culture medium, with addition of AA3 + 20 g/l AA once cells reached 60% confluency, and this for 3 or 7 additional days of culture.” left out
RNA extraction was performed using the GenElute Mammalian Total RNA Miniprep Kit (Sigma-Aldrich). Then, genomic DNA was eliminated using the On-Column DNase I Digestion kit (Sigma-Aldrich). Last, 1 µg of RNA was transcribed to cDNA using the Superscript III First-Strand synthesis (Invitrogen). Gene expression analysis was performed using the Platinum SYBR green qPCR supermix-UDG kit (Invitrogen) in a ViiA 7 Real-Time PCR instrument (Thermo Scientific, Waltham, MA). The sequences of all used qRT-PCR primers are listed in Supplementary Table 6. Of these, ribosomal protein L19 (RPL19) was used as a housekeeping gene for normalization.

CYP3A4 [3] = settings: HepG2 in AA3+GLY medium with rapamycin
Experimental: Protein amount was measured using a pierce BCA protein assay kit (Thermo Scientific).

relative CYP3A4 expression (compared to LDM 2% DMSO D20) (CYP3A4 [1]) | Relative CYP3A4 expression (CYP3A4 [2]; single amino acid supplementation, relative to CTL (CTL values equal HepG2 D7 CTL)) | Relative CYP3A4 expression (CYP3A4 [2]; HepG2 AAGLY D30 with RAPA) | effect on AA-mediated induction of CYP3A4 (CYP3A4 [3]) | Compound
50.8533 and 59.0748 and 76.4937 | 39.34 and 55.9446 and 51.9815 | – | – | CC(C)[C@H](N)C(=O)O [VAL, valine]
– | – | 1.244 and 1.301 and 1.514 | blocked the induction of CYP3A4 | CO[C@H]1C[C@@H]2CC[C@@H](C)[C@@](O)(O2)C(=O)C(=O)N2CCCC[C@H]2C(=O)O[C@H]([C@H](C)C[C@@H]2CC[C@@H](O)[C@H](OC)C2)CC(=O)[C@H](C)/C=C(\C)[C@@H](O)[C@@H](OC)C(=O)[C@H](C)C[C@H](C)/C=C/C=C/C=C/1C [rapamycin]
